Where two headings read alike, the source gives them in different places.
How the values were obtained:
Assay type in all cases: biochemical
[1] = biological target: SETDB1 (Homo sapiens, UniProt Q15047); test: human MTase selectivity panel
[2] = biological target: NSD1 (Homo sapiens, UniProt Q96L73); test: human MTase selectivity panel
[3] = biological target: T1, SETD8 (Homo sapiens, UniProt Q9NQR1); test: human MTase selectivity panel
T1 sequence (Q9NQR1 1-393): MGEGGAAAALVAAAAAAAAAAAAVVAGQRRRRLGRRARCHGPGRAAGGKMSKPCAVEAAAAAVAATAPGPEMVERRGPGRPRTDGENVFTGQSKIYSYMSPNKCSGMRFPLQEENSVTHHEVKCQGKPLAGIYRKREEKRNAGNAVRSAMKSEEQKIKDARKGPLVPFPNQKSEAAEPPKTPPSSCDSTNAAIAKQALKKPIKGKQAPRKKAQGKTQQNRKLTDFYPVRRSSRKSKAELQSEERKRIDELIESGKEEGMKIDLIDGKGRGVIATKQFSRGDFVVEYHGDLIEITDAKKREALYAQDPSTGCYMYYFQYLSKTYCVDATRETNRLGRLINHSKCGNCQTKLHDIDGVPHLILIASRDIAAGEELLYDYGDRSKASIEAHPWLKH

[4] = biological target: T2, NSD3 (Homo sapiens, UniProt Q9BZ95); test: human MTase selectivity panel
T2 sequence (Q9BZ95 1-1437): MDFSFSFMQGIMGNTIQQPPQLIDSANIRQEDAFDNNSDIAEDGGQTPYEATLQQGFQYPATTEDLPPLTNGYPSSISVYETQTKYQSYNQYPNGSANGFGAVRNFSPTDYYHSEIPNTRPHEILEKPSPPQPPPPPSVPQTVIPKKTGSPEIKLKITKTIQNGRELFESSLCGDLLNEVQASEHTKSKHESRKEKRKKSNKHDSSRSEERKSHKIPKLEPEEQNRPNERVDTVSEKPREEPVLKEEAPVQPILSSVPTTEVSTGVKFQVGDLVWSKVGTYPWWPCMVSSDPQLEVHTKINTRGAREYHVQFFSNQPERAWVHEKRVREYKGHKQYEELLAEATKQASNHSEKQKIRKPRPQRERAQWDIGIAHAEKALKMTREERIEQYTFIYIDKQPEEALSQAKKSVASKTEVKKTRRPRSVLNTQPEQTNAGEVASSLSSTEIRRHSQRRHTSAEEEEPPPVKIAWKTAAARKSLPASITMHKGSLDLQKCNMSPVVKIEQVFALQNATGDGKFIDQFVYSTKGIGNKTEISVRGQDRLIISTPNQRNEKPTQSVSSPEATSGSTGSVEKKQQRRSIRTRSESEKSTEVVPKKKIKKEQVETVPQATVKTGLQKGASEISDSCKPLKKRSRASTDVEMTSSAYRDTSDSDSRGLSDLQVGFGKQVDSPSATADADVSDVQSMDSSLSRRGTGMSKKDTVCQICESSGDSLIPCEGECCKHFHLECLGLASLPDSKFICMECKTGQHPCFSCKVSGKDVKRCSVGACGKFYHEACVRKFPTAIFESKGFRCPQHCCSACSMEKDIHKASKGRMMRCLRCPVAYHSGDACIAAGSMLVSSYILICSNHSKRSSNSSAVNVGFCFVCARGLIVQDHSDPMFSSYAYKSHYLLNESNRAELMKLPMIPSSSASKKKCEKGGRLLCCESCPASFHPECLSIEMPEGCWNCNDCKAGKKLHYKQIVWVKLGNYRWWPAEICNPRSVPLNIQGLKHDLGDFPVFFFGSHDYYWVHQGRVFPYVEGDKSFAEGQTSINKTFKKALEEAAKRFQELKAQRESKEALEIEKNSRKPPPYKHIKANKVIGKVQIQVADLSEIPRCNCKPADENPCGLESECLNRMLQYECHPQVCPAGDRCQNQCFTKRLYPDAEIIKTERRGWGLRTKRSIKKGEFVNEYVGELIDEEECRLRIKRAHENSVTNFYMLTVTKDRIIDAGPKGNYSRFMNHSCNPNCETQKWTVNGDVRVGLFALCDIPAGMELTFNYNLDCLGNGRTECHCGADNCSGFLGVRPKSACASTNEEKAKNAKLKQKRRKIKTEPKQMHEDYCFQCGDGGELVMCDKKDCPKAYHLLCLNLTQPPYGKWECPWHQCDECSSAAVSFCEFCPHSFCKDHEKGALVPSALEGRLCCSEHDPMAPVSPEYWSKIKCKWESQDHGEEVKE

[5] = biological target: SUV420H2 (Homo sapiens, UniProt Q86Y97); test: human MTase selectivity panel
[6] = biological target: T3, PRMT7 (protein arginine methyltransferase 7) (Homo sapiens, UniProt Q9NVM4); test: human MTase selectivity panel and IC50
T3 sequence (Q9NVM4 1-692): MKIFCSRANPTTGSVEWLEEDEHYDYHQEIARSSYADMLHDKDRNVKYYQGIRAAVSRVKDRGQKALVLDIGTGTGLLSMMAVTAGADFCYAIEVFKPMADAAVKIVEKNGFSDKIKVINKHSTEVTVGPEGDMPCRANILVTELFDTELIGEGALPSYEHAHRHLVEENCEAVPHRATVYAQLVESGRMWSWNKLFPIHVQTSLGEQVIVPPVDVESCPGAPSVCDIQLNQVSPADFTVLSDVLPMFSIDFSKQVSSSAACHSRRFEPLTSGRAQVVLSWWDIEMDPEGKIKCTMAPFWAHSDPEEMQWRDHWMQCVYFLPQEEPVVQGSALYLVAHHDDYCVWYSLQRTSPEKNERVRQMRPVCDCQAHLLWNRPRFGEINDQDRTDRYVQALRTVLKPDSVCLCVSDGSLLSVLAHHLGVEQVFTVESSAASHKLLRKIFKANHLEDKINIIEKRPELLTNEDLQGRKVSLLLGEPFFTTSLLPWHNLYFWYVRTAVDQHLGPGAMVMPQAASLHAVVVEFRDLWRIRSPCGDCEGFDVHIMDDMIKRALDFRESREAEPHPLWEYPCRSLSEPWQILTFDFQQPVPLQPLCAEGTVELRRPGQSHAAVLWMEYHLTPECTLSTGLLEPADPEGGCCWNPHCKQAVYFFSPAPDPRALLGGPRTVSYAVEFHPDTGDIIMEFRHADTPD

[7] = average ± SD, read-out: Activity (%) at 10 µM Average
[8] = read-out: Activity (%) at 10 µM Replicate 1
[9] = read-out: Activity (%) at 10 µM Replicate 2
[10] = read-out: Activity (%) at 10 µM Replicate 3

NSD1, sequence (Q96L73 whole entry): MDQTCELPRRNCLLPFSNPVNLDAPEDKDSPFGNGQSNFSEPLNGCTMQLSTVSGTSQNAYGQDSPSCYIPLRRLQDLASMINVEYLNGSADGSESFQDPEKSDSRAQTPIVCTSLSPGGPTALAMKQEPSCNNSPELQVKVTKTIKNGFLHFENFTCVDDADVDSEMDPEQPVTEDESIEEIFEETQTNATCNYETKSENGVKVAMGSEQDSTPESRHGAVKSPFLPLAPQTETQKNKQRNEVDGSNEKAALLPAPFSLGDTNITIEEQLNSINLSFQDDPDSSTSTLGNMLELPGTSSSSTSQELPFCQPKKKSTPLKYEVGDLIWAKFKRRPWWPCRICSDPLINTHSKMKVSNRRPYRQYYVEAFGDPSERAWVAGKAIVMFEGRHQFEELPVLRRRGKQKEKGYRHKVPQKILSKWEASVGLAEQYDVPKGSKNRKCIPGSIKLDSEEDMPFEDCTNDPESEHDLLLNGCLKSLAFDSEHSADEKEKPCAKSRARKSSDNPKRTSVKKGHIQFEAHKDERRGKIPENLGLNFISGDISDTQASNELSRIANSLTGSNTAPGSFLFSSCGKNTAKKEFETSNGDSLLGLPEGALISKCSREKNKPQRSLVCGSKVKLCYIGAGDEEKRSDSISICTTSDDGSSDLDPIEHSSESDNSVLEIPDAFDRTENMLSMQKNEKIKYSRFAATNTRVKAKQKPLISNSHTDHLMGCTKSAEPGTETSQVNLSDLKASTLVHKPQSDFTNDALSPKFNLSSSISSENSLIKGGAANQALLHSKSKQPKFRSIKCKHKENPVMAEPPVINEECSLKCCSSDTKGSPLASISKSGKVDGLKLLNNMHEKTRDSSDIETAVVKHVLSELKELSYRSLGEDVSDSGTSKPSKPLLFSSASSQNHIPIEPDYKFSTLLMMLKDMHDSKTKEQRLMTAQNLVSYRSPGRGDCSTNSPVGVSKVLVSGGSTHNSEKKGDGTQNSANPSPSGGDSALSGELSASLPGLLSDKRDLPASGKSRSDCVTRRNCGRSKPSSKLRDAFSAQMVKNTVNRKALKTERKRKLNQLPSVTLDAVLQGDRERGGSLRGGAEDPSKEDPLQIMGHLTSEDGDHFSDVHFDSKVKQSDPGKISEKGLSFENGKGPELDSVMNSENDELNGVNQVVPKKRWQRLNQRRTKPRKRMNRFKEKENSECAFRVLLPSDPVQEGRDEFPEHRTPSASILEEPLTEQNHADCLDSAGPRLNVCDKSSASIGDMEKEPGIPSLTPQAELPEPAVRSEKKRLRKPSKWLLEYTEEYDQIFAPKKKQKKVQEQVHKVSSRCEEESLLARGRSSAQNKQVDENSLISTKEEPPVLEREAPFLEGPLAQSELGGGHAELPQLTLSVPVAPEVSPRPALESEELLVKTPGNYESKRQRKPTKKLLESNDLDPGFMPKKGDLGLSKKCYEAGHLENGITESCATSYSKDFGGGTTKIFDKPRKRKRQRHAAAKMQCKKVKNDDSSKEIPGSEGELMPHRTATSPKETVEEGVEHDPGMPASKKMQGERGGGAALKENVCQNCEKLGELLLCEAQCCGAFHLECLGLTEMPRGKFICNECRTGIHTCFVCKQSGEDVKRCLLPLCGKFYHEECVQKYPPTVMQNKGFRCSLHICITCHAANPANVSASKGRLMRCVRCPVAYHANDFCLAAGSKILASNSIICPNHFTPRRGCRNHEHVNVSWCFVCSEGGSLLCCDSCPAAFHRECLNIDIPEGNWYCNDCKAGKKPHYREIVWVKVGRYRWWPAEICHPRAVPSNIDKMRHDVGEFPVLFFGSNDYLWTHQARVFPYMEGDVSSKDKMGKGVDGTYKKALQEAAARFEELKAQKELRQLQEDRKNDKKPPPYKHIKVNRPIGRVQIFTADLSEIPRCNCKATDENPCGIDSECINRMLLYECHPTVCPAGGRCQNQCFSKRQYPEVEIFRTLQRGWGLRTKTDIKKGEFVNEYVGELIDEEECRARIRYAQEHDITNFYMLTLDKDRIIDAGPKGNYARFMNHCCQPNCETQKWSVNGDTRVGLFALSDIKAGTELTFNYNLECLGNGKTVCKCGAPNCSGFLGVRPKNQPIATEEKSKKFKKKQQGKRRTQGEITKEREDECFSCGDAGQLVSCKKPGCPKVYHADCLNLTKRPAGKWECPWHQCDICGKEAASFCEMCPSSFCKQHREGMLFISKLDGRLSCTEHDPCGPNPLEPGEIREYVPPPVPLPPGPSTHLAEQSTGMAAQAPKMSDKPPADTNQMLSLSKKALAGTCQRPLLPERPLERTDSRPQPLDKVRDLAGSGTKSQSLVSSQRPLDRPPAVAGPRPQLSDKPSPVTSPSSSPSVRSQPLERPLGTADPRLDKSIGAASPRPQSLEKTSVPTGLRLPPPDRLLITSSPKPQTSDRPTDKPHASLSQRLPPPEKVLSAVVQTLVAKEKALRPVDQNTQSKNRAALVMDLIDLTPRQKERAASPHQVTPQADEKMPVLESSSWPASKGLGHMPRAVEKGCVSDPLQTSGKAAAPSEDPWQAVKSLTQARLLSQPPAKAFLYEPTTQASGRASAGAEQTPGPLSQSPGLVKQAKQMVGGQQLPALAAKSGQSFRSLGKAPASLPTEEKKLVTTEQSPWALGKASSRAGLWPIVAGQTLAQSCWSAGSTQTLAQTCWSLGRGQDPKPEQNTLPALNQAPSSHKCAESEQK
SUV420H2, sequence (Q86Y97 whole entry): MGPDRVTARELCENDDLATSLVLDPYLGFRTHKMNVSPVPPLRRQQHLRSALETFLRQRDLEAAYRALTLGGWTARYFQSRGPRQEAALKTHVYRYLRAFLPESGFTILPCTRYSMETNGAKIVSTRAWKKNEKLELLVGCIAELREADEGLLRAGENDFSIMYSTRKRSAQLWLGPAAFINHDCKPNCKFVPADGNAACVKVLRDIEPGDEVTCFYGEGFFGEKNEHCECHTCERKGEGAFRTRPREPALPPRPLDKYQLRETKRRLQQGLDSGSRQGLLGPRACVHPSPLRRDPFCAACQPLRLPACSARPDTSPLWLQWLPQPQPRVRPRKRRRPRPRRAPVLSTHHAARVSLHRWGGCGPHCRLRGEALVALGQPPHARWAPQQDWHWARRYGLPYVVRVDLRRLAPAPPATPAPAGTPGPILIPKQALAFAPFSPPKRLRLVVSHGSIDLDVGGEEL

## Nc1ncnc2c1ncn2[C@@H]1O[C@H](CSCc2ccc(Cl)cc2)[C@@H](O)[C@H]1O [NSC620333]
[1]; [7]
  activity at 10 µM: 103 ± 3%
[1]; [8]
  activity at 10 µM: 104%
[1]; [9]
  activity at 10 µM: 106%
[1]; [10]
  activity at 10 µM: 100%
[2]; [7]
  activity at 10 µM: 104 ± 2%
[2]; [8]
  activity at 10 µM: 103%
[2]; [9]
  activity at 10 µM: 102%
[2]; [10]
  activity at 10 µM: 107%
[3]; [7]
  activity at 10 µM: 85 ± 6%
[3]; [8]
  activity at 10 µM: 79%
[3]; [9]
  activity at 10 µM: 90%
[3]; [10]
  activity at 10 µM: 86%
[4]; [7]
  activity at 10 µM: 110 ± 5%
[4]; [8]
  activity at 10 µM: 112%
[4]; [9]
  activity at 10 µM: 104%
[4]; [10]
  activity at 10 µM: 115%
[5]; [7]
  activity at 10 µM: 96 ± 9%
[5]; [8]
  activity at 10 µM: 96%
[5]; [9]
  activity at 10 µM: 104%
[5]; [10]
  activity at 10 µM: 86%
[6]; PRMT7
  IC50: 7 ± 1.5 µM
[6]; PRMT7, average ± SD, read-out: Activity (%) at 10 µM Average
  activity at 10 µM: 32 ± 3%
[6]; PRMT7, read-out: Activity (%) at 10 µM Replicate 1
  activity at 10 µM: 35%
[6]; PRMT7, read-out: Activity (%) at 10 µM Replicate 2
  activity at 10 µM: 29%
[6]; PRMT7, read-out: Activity (%) at 10 µM Replicate 3
  activity at 10 µM: 32%
[6]; PRMT7 IC50 curve
  Hill Slope: -1.9
